Assays:
IL-8 = assay: HCPt-induced IL-8 secretion in three-dimensional nasal epithelial cultures from an allergic donor, ELISA; format: cell-based, human; conditions: 30 μl of 20 mM HCPt, 16 hours exposure; peak of IL-8 secretion at Day 4
[1] = test system: human nasal epithelial cells; assay: Cilia beating frequency (CBF) in three-dimensional nasal epithelial cultures from an allergic donor; format: cell-based; conditions: Day 4, versus control

## [Cl][Pt-2]([Cl])([Cl])([Cl])([Cl])[Cl].[NH4+].[NH4+] [HCPt, Ammonium hexachloroplatinate]
IL-8
  IL-8 secretion with HCPt alone: efficiently induced inflammation
[1]
  cilia beating frequency (CBF) with HCPt alone: reduced CBF versus control

— patent publication US11672821B2, “Methods for treating respiratory conditions using ionic aqueous polysaccharide compositions” (Gerolymatos International S.A., priority 2013, dated 2023)
